# According to article PMC13439108, “An antibody–drug conjugate active against antibiotic-resistant Neisseria gonorrhoeae” (Proceedings of the National Academy of Sciences of the …, 2026):
# Where two headings read alike, the source gives them in different places. Where a SMILES comes first, the peptide text is derived from it. [ ]: non-standard residue; d: D form. The star is where a group is joined. d(aIle) = CC[C@H](C)[C@@H](N)C(=O)O; dDab = NCC[C@@H](N)C(=O)O; Octanoyl = CCCCCCCC(=O)*; Dab = NCC[C@H](N)C(=O)O; AEEA = NCCOCCOCC(=O)O
# Columns and labels:
# human erythrocytes = test: Hemolysis of human erythrocytes; type: cell-based; conditions: concentration of peptide or ADC that lyses 50% of erythrocytes; washed human blood 0.5%, 37°C, 1 hr, OD415; melittin 2.5 µM = 100%, PBS = 0%; n = 3
# Experimental: For hemolysis, whole human blood (1 ml; K2EDTA; Cambridge Bioscience) was washed in PBS then 0.5% added to an equal volume of peptides or ADCs in 96-well V-bottomed polypropylene plates and incubated at 37°C for 1 hr. Cells were pelleted at 1,000 × g for 10 min and the absorbance at OD415 measured. Positive (melittin, 2.5 µM, Merck Life Science) and negative (PBS) controls were normalised as 100 and 0% hemolysis, respectively. […]
# HK-2 cells [1] = test: LDH release cytotoxicity; type: cell-based, human; conditions: n = 3; for LDH (EC50) 4 h: 2 × 10^4 cells/well, LDH release OD490, 4 h
# Experimental: HK-2 cells (CRL-2190™, Americab Type Culutre Collection (ATCC)), a proximal renal tubule cell(7), and End1/E6E7 (CRL-2615™, ATCC) upper cervical epithelial cells(8) were cultured in Keratinocyte Serum Free Medium (Invitrogen, Life Technologies Ltd.) with human recombinant EGF (5 ng ml-1) and bovine pituitary extract (0.05 mg ml−1) at 37°C in 5% CO2. Cells were seeded in 96-well plates (Corning, Polystyrene) at a density of 2 × 10^4 cells/well 24 hr prior; Triton-X-100 (0.1%) and Digitonin (30 μg ml−1) were used as controls. Lactate dehydrogenase (LDH) release was measured using the Biovision kit; the OD490 was assessed in a SpectraMax M5 plate reader. […]
# [2] = system: N. gonorrhoeae G97687 (MDR isolate); conditions: G97687, MDR isolate resistant to ESCs and azithromycin, microdilution in FB, 24 hr, 37°C, 5% CO2
# Experimental: (§1) Determination of Oct-TriA1 Minimum Inhibitory Concentration (MIC)
# (§2) N. gonorrhoeae was resuspended in PBS to an ODA600 1.0, and ̴5 × 10^4 CFU added to wells of a microdilution plate containing dilutions of antimicrobials in FB. Plates were incubated for 24 hr at […]
# (§3) 37°C, in 5% CO2 then 10 μl aliquots plated onto GCB agar. The MIC was defined as the lowest concentration of an antimicrobial that prevented bacterial growth. […]
# (§4) Peptide concentration in ADC preparations
# (§5) Peptide concentrations for ADCs were calculated from the antibody concentration, the drug-to-antibody ratio (DAR), and the peptide molecular weight using the following formula:
# (§6) Conc. peptide (µg/mL) = Conc. ADC (µg/mL) × DAR x MWpeptide (Da) […]
# (§7) Where Conc. ADC is the ADC/ mAb concentration, MWADC is the mAb molecular weight (150 kDa), MWpeptide is the peptide molecular weight and DAR is the average number of peptides per conjugate.
# (§8) This formula was used to convert ADC concentrations to peptide concentrations for all assays. […]
# N. gonorrhoeae MS11ΔIgAP = conditions: microdilution in FB, ~5 × 10^4 CFU, 24 hr, 37°C, 5% CO2
# Experimental: (§9) columns (ThermoFisher scientific). Activated mAb was added to 0.9 mg of Oct-TriA1 analogues (synthesised by ISCA Biochemicals, UK) and incubated at room temperature for 60 min. ADCs were dialysed using slide-A-Lyzer cassette (20K MWCO, ThermoFisher scientific) into PBS overnight at 4 °C […]
# (§10) MALDI-TOF MS analysis for determination of intact mass mAbs or ADCs with a concentration of 1 mg/mL were acidified with 1% trifluoroacetic acid and mixed with Super DHB matrix, 1 μl was spotted onto an MTP Anchorchip 600/384. For every mAb, three sample spots were prepared from the same solution using three protocols advised by the manufacturer. MALDI-TOF measurements were performed on a Microflex LRF mass spectrometer, equipped with a 60Hz nitrogen laser at 337nm. Number of peptides conjugated was calculated using the MALDI-TOF molecular weights (MW) [MW = M+] of each ADC, the unconjugated antibody (mAb), and the molecular weights of Oct-TriA1 analogues using the following equation.
# (§11) Number of peptides = MW ADC − MW mAb […]
# as §1, §2, §3, §4, §5, §6, §7, §8
# N. gonorrhoeae MS11 = conditions: microdilution in FB, ~5 × 10^4 CFU, 24 hr, 37°C, 5% CO2
# Experimental: as §9, §10, §11, §1, §2, §3, §4, §5, §6, §7, §8
# N. gonorrhoeae WHO F = conditions: microdilution in FB, ~5 × 10^4 CFU, 24 hr, 37°C, 5% CO2, lowest concentration preventing growth
# Experimental: as §9, §10, §11, §1, §2, §3, §4, §5, §6, §7, §8
# N. gonorrhoeae WHO K = conditions: microdilution in FB, ~5 × 10^4 CFU, 24 hr, 37°C, 5% CO2
# Experimental: as §9, §10, §11, §1, §2, §3, §4, §5, §6, §7, §8
# [3] = system: N. gonorrhoeae FA1090ΔmtrE; conditions: microdilution in FB, ~5 × 10^4 CFU, 24 hr, 37°C, 5% CO2
# Experimental: as §9, §10, §11, §1, §2, §3, §4, §5, §6, §7, §8
# N. gonorrhoeae WHO O = conditions: microdilution in FB, ~5 × 10^4 CFU, 24 hr, 37°C, 5% CO2
# Experimental: as §9, §10, §11, §1, §2, §3, §4, §5, §6, §7, §8
# N. gonorrhoeae WHO N = conditions: microdilution in FB, ~5 × 10^4 CFU, 24 hr, 37°C, 5% CO2
# Experimental: as §9, §10, §11, §1, §2, §3, §4, §5, §6, §7, §8
# N. gonorrhoeae FA1090 [4] = conditions: microdilution in FB, ~5 × 10^4 CFU, 24 hr, 37°C, 5% CO2
# Experimental: as §9, §10, §11, §1, §2, §3, §4, §5, §6, §7, §8
# N. gonorrhoeae WHO G = conditions: microdilution in FB, ~5 × 10^4 CFU, 24 hr, 37°C, 5% CO2
# Experimental: as §9, §10, §11, §1, §2, §3, §4, §5, §6, §7, §8
# N. gonorrhoeae WHO M = conditions: microdilution in FB, ~5 × 10^4 CFU, 24 hr, 37°C, 5% CO2
# Experimental: as §9, §10, §11, §1, §2, §3, §4, §5, §6, §7, §8
# N. gonorrhoeae WHO P = conditions: microdilution in FB, ~5 × 10^4 CFU, 24 hr, 37°C, 5% CO2
# Experimental: as §9, §10, §11, §1, §2, §3, §4, §5, §6, §7, §8
# N. gonorrhoeae MS11ΔmtrE = conditions: microdilution in FB, ~5 × 10^4 CFU, 24 hr, 37°C, 5% CO2
# Experimental: as §9, §10, §11, §1, §2, §3, §4, §5, §6, §7, §8
# [5] = system: N. gonorrhoeae FA1090ΔIgAP; conditions: microdilution in FB, ~5 × 10^4 CFU, 24 hr, 37°C, 5% CO2
# Experimental: as §9, §10, §11, §1, §2, §3, §4, §5, §6, §7, §8
# N. gonorrhoeae WHO L = conditions: microdilution in FB, ~5 × 10^4 CFU, 24 hr, 37°C, 5% CO2
# Experimental: as §9, §10, §11, §1, §2, §3, §4, §5, §6, §7, §8
# HK-2 cells [6] = test: MTT cell viability; type: cell-based, human; conditions: n = 3; for MTT (EC50) 4 h: MTT reduction OD570, 4 h
# Experimental: HK-2 cells (CRL-2190™, Americab Type Culutre Collection (ATCC)), a proximal renal tubule cell(7), and End1/E6E7 (CRL-2615™, ATCC) upper cervical epithelial cells(8) were cultured in Keratinocyte Serum Free Medium (Invitrogen, Life Technologies Ltd.) with human recombinant EGF (5 ng ml-1) and bovine pituitary extract (0.05 mg ml−1) at 37°C in 5% CO2. […]
# Cell viability was assessed by 3-(4,5-dimethylthiazol-2-yl)-2,5-diphenyl-2H-tetrazolium bromide (MTT) assay(9); 200 µl fresh cell media and 250 µg of MTT was added to cells. Plates were Incubated at 37 °C, 5% CO2 for 3 hr then 200 µl of DMSO was added to wells with 25 µl glycine buffer (0.1 M glycine, 0.1 M NaCl pH 10.5) and shaken at 1000 r.p.m. for 10 min. Absorbance was read at OD570 nm. Cell viability was calculated as (sample absorbance – cell free blank/media control absorbance) x100.
# N. gonorrhoeae FA1090 [7] = test: microbe, parasite or virus in culture; conditions: Neisseria gonorrhoeae
# Experimental: 37°C, in 5% CO2 then 10 μl aliquots plated onto GCB agar. The MIC was defined as the lowest concentration of an antimicrobial that prevented bacterial growth.
# Determination of N. gonorrhoeae resistance to Oct-TriA1
# Single colonies of N. gonorrhoeae FA1090 were inoculated into 2 mL of FB media supplemented with 1% Vitox (Oxoid) and grown overnight. After 24 hours, 240 µl of a 1/ 5,000 dilution of FA1090 in 2x FB was added to a 48-well plate containing 2-fold dilutions of either Oct-TriA1-c (final concentration, 12.5 µg/ml to 0.2 µg/ml) or ciprofloxacin (final concentration, 16.4 to 0.001 µg/ml) in a total volume of 480
# µl. Plates were incubated at 37 °C, 5% CO2 with shaking (180 rpm). After 24 hours, ODA600 of each well […]
# to fresh media containing all concentrations of antimicrobials for a total of 35 days. […]
smiles,measurement,setting,value
"CCCCCCCC(=O)N[C@@H](C(=O)N[C@H](CCN)C(=O)NCC(=O)N[C@H](CO)C(=O)N[C@H](Cc1c[nH]c2ccccc12)C(=O)N[C@@H](CO)C(=O)N[C@@H](CCN)C(=O)N[C@H](CCN)C(=O)N[C@@H](Cc1ccccc1)C(=O)N[C@@H](CCC(=O)O)C(=O)N[C@H](C(=O)N[C@@H](C(=O)N[C@@H](C)C(=O)O)[C@@H](C)CC)C(C)C)C(C)C [Oct-TriA1, reference compound]",Hemolysis (HC50),human erythrocytes,39.4 µg/mL
same,LDH (EC50) 4 h,HK-2 cells [1],23.19 µg/mL
same,LDH (EC50) 24 h,"HK-2 cells [1]; LDH release OD490, 24 h",14.14 µg/mL
same,LDH (EC50) 48 h,"HK-2 cells [1]; LDH release OD490, 48 h",<0.1 µg/mL
same,MIC,[2],0.2 µg/mL
same,MIC,[2]; listed as Oct-Tri1,0.78 µg/mL
same,MIC,N. gonorrhoeae MS11ΔIgAP,0.39 µg/mL
same,MIC,N. gonorrhoeae MS11,0.78 µg/mL
same,MIC,N. gonorrhoeae WHO F,0.2 µg/mL
same,MIC,N. gonorrhoeae WHO K,0.78 µg/mL
same,MIC,[3],0.1 µg/mL
same,MIC,N. gonorrhoeae WHO O,0.39 µg/mL
same,MIC,N. gonorrhoeae WHO N,0.39 µg/mL
same,MIC,N. gonorrhoeae FA1090 [4],0.2 µg/mL
same,MIC,N. gonorrhoeae WHO G,0.39 µg/mL
same,MIC,N. gonorrhoeae WHO M,0.39 µg/mL
same,MIC,N. gonorrhoeae WHO P,0.39 µg/mL
same,MIC,N. gonorrhoeae MS11ΔmtrE,0.2 µg/mL
same,MIC,[5],0.1 µg/mL
same,MIC,N. gonorrhoeae WHO L,0.2 µg/mL
same,MTT (EC50) 4 h,HK-2 cells [6],21.15 µg/mL
same,MTT (EC50) 24 h,"HK-2 cells [6]; MTT reduction OD570, 24 h",7.93 µg/mL
same,MTT (EC50) 48 h,"HK-2 cells [6]; MTT reduction OD570, 48 h",8.07 µg/mL
"O=C(O)c1cn(C2CC2)c2cc(N3CCNCC3)c(F)cc2c1=O [ciprofloxacin, reference compound]",MIC,"N. gonorrhoeae FA1090 [7]; FA1090, 24 h, read-out: MIC at start of resistance evolution",0.002 µg/mL
same,MIC,"N. gonorrhoeae FA1090 [7]; FA1090, read-out: MIC after 35 d of resistance evolution",0.26 µg/mL
CCCCCCCC(=O)N[C@@H](C(=O)N[C@H](CCN)C(=O)NCC(=O)N[C@H](CO)C(=O)N[C@H](Cc1c[nH]c2ccccc12)C(=O)N[C@@H](CO)C(=O)N[C@@H](CCN)C(=O)N[C@H](CCN)C(=O)N[C@@H](Cc1ccccc1)C(=O)N[C@@H](CCC(=O)O)C(=O)N[C@H](C(=O)N[C@@H](C(=O)N[C@@H](C)C(=O)NCCOCCOCC(=O)N[C@@H](CC(C)C)C(=O)N1CCC[C@H]1C(=O)N[C@@H](CCCNC(=N)N)C(=O)N1CCC[C@H]1C(=O)N1CCC[C@H]1C(=O)N[C@@H](C)C(=O)N1CCC[C@H]1C(=O)N[C@H](C(=O)N[C@@H](Cc1ccccc1)C(=O)N[C@@H](CO)C(=O)NCCOCCOCC(=O)N[C@@H](CS)C(N)=O)C(C)C)[C@@H](C)CC)C(C)C)C(C)C [cl-Oct-TriA1] (Octanoyl-[dV][dDab]G[dS][dW]S[Dab][dDab]FEV[d(aIle)]A[AEEA]LPRPPAPVFS[AEEA]C-NH2),LDH (EC50) 4 h,HK-2 cells [1],>400 µg/mL
same,MTT (EC50) 4 h,HK-2 cells [6],315.43 µg/mL
